Patent US20230416203A1, “POTENT AND SELECTIVE INHIBITORS OF THE CALCIUM-ACTIVATED POTASSIUM CHANNEL, KCA3.1, FOR USE AS PLATFORM THERAPEUTICS” (priority 2020, published 2023)
Like-named read-outs stand apart in the source and are kept apart here.

Columns and labels:
KCa3.1 channel = KCa3.1 channel (Homo sapiens, UniProt O15554); experiment: KCa3.1 patch-clamp (QPatch HTX automated and manual); assay type: cell-based
Procedure: The effect of the compounds on KCa3.1 channel was evaluated by patch-clamp using a QPatch HTX automated electrophysiology platform (Sophion, Denmark) and by manual patch-clamp (HEKA, Germany). For QPatch experiments, the giga-seal and whole-cell requirements for the automated electrophysiology were the following: minimum seal resistance=0.1 GQ; holding potential=−80 mV; holding pressure=−20 mbar; and positioning pressure=−70 mbar. For KCa3.1 experiment, the external solution was Na^+-Ringer's and contained (in mM): 160 NaCl; 10 HEPES; 4.5 KCl; 1 MgCl2; and 2 CaCl2 (pH=7.4, 310 mOsm). […] Following establishment of the whole-cell configuration, cells were held at −80 mV and KCa3.1 currents elicited by a voltage protocol that held at −80 mV for 20 ms, stepped to −120 mV for 20 ms, ramped from −120 to +40 mV over 200 ms, and then stepped back to −120 mV for 20 ms. This pulse protocol was applied every 10 s. Current slopes (in amperes per second) were measured using the Sophion QPatch software and exported to Microsoft Excel and GraphPad Prism 7 for analysis. […] Curve-fitting and IC50 determination were performed using GraphPad Prism software.

KV1.3 = target: T1, KV1.3 (Mus musculus, UniProt P16390); experiment: Potassium channels patch-clamp (QPatch), KV1.3; assay type: cell-based; conditions: L929 Mouse KV1.3; read-out: KV1.3
T1 construct: expressed in transfected cells; host or cells: L929
T1 sequence (P16390 whole entry): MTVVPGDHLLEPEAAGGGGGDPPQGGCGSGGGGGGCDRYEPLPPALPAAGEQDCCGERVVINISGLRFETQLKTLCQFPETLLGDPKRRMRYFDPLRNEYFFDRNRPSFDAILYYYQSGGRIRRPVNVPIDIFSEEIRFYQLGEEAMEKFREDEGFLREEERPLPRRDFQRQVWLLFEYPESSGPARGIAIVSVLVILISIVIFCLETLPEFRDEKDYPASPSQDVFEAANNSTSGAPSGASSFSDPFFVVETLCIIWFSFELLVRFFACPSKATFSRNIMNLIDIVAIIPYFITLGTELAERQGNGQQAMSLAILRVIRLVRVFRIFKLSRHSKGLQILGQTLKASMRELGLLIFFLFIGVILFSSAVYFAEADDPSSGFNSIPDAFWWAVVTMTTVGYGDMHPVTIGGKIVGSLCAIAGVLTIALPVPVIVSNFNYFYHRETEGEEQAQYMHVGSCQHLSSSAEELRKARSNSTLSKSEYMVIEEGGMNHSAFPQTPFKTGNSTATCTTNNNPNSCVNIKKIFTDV
Procedure: (§1) The effects of Group 4 compounds on related potassium channels were evaluated by patch-clamp using a QPatch HTX automated electrophysiology platform (Sophion, Denmark). The giga-seal and whole-cell requirements for the automated electrophysiology were the following: minimum seal resistance=0.1 GO, holding potential=−80 mV, holding pressure=−20 mbar; and positioning pressure=−70 mbar.

KV1.5 = target: T2, KV1.5 (Homo sapiens, UniProt P22460); experiment: Potassium channels patch-clamp (QPatch), KV1.5; assay type: cell-based; conditions: MEL Human KV1.5; read-out: KV1.5
T2 construct: expressed in transfected cells; host or cells: MEL
Procedure: as §1

KCa2.3 = target: T3, KCa2.3 (Homo sapiens, UniProt Q9UGI6); experiment: Potassium channels patch-clamp (QPatch), KCa2.3; assay type: cell-based; conditions: COS7 Human KCa2.3; read-out: KCa2.3
T3 construct: expressed in transfected cells; host or cells: COS7
T3 sequence (Q9UGI6 whole entry): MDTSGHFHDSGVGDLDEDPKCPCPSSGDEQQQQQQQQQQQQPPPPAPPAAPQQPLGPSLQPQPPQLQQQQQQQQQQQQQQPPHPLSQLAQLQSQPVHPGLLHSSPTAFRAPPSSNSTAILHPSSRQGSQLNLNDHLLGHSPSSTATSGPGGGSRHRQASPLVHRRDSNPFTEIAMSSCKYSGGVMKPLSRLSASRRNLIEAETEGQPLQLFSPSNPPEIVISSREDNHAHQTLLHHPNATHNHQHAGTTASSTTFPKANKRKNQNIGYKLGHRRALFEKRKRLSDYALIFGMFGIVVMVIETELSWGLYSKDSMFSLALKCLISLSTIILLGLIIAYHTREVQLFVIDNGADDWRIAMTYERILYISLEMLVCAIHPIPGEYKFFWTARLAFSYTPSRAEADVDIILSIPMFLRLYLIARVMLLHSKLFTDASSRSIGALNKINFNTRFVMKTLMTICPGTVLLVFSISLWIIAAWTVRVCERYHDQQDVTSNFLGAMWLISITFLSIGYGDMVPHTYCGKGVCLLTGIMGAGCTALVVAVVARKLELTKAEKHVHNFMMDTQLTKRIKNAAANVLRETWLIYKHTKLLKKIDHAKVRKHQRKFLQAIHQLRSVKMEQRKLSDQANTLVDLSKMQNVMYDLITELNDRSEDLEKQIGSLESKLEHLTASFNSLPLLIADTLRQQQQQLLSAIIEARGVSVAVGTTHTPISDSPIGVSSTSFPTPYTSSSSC
Procedure: as §1

KV11.1 (hERG) = target: T4, KV11.1 (hERG) (Homo sapiens, UniProt Q12809); experiment: Potassium channels patch-clamp (QPatch), KV11.1 (hERG); assay type: cell-based; conditions: CHO Human KV11.1; read-out: KV11.1 (hERG)
T4 construct: host or cells: CHO
T4 sequence (Q12809 whole entry): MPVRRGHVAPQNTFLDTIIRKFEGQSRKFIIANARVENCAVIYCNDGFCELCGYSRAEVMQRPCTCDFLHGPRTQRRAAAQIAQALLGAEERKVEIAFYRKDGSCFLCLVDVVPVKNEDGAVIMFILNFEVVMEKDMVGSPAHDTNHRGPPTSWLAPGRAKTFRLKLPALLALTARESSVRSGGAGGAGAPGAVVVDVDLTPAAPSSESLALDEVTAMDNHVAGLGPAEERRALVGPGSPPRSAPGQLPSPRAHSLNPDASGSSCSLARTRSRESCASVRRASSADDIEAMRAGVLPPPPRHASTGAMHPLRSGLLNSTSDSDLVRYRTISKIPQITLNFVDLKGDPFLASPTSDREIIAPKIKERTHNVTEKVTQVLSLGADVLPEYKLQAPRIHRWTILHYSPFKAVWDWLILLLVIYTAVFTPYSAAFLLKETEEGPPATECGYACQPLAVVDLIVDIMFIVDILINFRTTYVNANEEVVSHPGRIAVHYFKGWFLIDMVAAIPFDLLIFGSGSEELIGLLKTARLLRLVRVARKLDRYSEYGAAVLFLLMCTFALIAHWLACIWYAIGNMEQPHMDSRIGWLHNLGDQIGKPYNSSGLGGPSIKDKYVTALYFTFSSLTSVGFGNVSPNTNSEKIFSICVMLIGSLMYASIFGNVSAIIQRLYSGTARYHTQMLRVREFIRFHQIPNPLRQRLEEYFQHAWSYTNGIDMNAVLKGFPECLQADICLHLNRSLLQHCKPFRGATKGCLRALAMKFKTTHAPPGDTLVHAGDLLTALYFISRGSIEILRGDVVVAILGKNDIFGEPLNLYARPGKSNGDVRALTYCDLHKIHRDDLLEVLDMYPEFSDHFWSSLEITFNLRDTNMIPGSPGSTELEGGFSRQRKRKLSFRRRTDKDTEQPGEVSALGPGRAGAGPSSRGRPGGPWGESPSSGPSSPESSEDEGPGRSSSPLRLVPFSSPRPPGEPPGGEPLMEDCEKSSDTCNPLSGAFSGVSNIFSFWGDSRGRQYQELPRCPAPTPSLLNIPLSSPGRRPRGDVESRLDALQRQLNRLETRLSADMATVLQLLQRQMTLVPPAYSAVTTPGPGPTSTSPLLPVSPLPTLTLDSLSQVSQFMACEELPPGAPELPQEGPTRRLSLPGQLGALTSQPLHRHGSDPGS
Procedure: as §1

CaV1.2 channel = CaV1.2 channel (Homo sapiens, UniProt Q13936); experiment: cell-based
Sequence of CaV1.2 channel (Q13936 whole entry): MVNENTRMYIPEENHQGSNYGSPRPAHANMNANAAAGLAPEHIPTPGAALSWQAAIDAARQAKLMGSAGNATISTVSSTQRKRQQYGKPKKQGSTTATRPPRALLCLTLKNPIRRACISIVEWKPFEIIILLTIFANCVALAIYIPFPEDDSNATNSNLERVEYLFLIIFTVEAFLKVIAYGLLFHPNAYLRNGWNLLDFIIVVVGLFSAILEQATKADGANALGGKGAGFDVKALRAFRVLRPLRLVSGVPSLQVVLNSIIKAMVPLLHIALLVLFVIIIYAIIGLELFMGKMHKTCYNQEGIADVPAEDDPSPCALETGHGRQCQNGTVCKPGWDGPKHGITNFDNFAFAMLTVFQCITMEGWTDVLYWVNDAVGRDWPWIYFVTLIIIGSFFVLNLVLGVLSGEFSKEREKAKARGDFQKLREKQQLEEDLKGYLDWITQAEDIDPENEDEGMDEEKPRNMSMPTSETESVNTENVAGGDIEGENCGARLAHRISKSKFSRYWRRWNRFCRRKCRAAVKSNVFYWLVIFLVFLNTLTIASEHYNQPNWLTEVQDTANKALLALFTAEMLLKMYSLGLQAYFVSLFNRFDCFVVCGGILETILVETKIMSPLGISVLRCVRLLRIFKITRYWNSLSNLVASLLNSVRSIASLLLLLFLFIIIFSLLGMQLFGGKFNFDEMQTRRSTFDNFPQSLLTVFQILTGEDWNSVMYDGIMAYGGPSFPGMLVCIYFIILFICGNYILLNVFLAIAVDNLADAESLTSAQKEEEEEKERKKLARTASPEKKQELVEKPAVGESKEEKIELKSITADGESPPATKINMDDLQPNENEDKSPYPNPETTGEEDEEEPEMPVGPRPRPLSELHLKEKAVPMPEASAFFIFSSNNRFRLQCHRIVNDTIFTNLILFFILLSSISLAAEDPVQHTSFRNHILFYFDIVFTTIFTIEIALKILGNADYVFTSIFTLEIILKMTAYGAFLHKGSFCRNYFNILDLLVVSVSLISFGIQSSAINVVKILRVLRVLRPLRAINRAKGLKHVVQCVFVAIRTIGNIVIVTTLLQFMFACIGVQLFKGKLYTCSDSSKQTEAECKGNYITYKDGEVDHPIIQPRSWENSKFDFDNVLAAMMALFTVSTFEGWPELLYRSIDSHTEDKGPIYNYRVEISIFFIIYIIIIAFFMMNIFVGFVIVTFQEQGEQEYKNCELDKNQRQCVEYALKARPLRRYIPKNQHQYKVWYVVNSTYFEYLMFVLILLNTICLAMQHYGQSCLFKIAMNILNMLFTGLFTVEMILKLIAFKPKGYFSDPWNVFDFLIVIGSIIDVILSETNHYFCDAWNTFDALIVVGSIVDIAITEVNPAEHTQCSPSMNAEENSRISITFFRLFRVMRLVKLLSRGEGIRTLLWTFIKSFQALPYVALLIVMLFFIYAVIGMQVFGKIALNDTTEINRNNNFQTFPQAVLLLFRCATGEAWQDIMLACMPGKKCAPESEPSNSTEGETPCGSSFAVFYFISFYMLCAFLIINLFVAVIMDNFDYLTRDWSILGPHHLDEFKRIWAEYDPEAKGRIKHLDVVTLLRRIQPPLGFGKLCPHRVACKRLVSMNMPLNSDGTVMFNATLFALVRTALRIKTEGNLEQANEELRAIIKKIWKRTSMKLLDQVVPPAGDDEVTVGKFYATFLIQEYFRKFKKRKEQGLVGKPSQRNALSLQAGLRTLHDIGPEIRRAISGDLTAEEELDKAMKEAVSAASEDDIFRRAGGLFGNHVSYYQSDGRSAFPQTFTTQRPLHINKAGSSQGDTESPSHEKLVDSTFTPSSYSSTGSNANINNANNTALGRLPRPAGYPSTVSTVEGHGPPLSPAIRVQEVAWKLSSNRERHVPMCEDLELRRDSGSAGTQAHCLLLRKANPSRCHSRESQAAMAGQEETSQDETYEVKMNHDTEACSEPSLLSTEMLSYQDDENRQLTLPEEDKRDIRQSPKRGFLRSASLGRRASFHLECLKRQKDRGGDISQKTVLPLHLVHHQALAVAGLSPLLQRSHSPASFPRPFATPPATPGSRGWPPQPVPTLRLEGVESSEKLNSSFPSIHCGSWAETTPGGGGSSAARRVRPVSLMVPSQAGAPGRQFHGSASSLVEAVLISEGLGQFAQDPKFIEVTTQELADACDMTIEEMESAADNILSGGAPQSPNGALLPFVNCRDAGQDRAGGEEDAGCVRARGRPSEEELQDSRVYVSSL
Procedure: (§2) The external solution contained (in mM): 140 TEA-Cl; 2 MgCl2; 10 CaCl2; 10 HEPES; and 5 D-glucose (pH=7.4). The internal solution contained (in mM): 120 CsCl; 1 MgCl2; 10 HEPES; 10 EGTA; 0.3 Na2-GTP; and 4 Mg-ATP (pH=7.2). Following establishment of the whole-cell configuration, CaV1.2 current was recorded at holding membrane potential of −80 mV and then depolarized to +10 mV (test pulse was modified slightly due to lead IV test) for 0.3 s. This protocol was repeated at 20 s intervals to observe the effect of the test compounds on the peak of CaV1.2 current. Each cell was incubated with each test compound for 5 min, or until the current reached steady-state. The compounds were applied at multiple concentrations from low to high. Each cell acted as its own control. The decreases in the peak currents were used to determine the IC50 for CaV1.2 inhibition. Curve-fitting and IC50 calculations were performed using IGOR software.

[1] = target: CaV1.2 channel over KCa3.1 (Homo sapiens, UniProt Q13936); experiment: in vitro; conditions: pH 7.4
Sequence of CaV1.2 channel over KCa3.1 (Q13936 whole entry): as above
Procedure: as §2

KV1.2 = target: T5, KV1.2 (Rattus norvegicus, UniProt P63142); experiment: Potassium channels patch-clamp (QPatch), KV1.2; assay type: cell-based; conditions: B82 Rat KV1.2; read-out: KV1.2
T5 construct: expressed in transfected cells; host or cells: B82
Procedure: as §1

KV4.2 = target: T6, KV4.2 (Rattus norvegicus, UniProt Q63881); experiment: Potassium channels patch-clamp (QPatch), KV4.2; assay type: cell-based; conditions: LTK Rat KV4.2; read-out: KV4.2
T6 construct: expressed in transfected cells; host or cells: LTK
T6 sequence (Q63881 1-630): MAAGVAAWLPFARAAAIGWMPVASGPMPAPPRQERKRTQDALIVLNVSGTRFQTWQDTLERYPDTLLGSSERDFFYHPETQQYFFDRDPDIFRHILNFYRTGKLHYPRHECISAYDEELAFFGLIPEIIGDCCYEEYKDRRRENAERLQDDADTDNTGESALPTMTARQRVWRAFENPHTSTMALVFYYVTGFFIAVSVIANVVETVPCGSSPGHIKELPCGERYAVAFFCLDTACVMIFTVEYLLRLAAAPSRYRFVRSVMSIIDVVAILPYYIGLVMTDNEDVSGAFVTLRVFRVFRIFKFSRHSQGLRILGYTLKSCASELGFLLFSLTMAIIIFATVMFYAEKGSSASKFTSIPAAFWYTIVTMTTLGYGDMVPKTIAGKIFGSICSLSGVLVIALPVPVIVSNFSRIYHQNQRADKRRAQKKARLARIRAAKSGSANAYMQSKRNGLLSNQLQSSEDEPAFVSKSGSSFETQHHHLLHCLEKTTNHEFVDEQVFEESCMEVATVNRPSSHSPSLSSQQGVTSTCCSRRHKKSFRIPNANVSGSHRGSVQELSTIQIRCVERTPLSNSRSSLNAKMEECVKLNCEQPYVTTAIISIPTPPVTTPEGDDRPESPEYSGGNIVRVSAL
Procedure: as §1

KV1.7 = target: T7, KV1.7 (Homo sapiens, UniProt Q96RP8); experiment: Potassium channels patch-clamp (QPatch), KV1.7; assay type: cell-based; conditions: CHL Human KV1.7; read-out: KV1.7
T7 construct: expressed in transfected cells; host or cells: CHL
Procedure: as §1

KV1.4 = target: T8, KV1.4 (Homo sapiens, UniProt P22459); experiment: Potassium channels patch-clamp (QPatch), KV1.4; assay type: cell-based; conditions: LTK Human KV1.4; read-out: KV1.4
T8 construct: expressed in transfected cells; host or cells: LTK
Procedure: as §1

KV1.1 = target: T9, KV1.1 (Mus musculus, UniProt P16388); experiment: Potassium channels patch-clamp (QPatch), KV1.1; assay type: cell-based; conditions: L929 Mouse KV1.1; read-out: KV1.1
T9 construct: expressed in transfected cells; host or cells: L929
Procedure: as §1

KCa1.1 = target: T10, KCa1.1 (Homo sapiens, UniProt Q12791); experiment: Potassium channels patch-clamp (QPatch), KCa1.1; assay type: cell-based; conditions: HEK Human KCa1.1; read-out: KCa1.1
T10 construct: expressed in transfected cells; host or cells: HEK
Procedure: as §1

KCa2.2 = target: T11, KCa2.2 (Rattus norvegicus, UniProt P70604); experiment: Potassium channels patch-clamp (QPatch), KCa2.2; assay type: cell-based; conditions: HEK Rat KCa2.2; read-out: KCa2.2
T11 construct: expressed in transfected cells; host or cells: HEK
Procedure: as §1

KV3.1 = target: T12, KV3.1 (Mus musculus, UniProt P15388); experiment: Potassium channels patch-clamp (QPatch), KV3.1; assay type: cell-based; conditions: L929 Mouse KV3.1; read-out: KV3.1
T12 construct: expressed in transfected cells; host or cells: L929
T12 sequence (P15388 1-511): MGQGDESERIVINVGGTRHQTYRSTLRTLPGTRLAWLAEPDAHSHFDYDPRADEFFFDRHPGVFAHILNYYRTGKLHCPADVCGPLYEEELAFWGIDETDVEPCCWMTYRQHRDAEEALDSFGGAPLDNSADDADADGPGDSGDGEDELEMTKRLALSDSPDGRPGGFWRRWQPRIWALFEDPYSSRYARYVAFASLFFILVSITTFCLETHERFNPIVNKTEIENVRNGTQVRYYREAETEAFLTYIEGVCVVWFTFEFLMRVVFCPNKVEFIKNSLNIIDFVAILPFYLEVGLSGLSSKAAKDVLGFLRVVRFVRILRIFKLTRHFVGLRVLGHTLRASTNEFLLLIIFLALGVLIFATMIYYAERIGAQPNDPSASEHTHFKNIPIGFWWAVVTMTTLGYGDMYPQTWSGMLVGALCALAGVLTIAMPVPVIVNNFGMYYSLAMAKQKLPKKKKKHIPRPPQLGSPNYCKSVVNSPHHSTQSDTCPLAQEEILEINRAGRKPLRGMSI
Procedure: as §1

[2] = IC50 (nM), block of KCa3.1, patch clamp (Table 2)
[3] = block of KCa3.1, patch clamp (Table 2), read-out: IC50

Structure (SMILES) | IC50 (KCa3.1 channel; [2]) [nM] | IC50 (KCa3.1 channel; [3]) [nM] | IC50 (KV1.3) [µM] | IC50 (KCa3.1 channel; KCa3.1, Table 5) [nM] | IC50 (KCa3.1 channel; KCa3.1 IC50 (nM), Table 3) [nM] | IC50 (KV1.5) [µM] | IC50 (KCa2.3) [µM] | IC50 (KV11.1 (hERG)) [µM] | IC50 (CaV1.2 channel) [µM] | selectivity ratio [1] | other results
COCCOC(=O)C1=C(C)NC(C)=C(C(=O)OCCOC)C1c1cccc([N+](=O)[O-])c1 [Compound 06] | 9880 | – | – | – | – | – | – | – | – | – | –
COC(=O)C1=C(C)NC(C)=C(C(=O)OC)C1c1ccccc1[N+](=O)[O-] [Compound 07] | – | 4000 | – | – | – | – | – | – | – | – | IC50 (KCa3.1 channel; Table 3, read-out: KCa3.1 IC50): 4000 nM
COCCOC(=O)C1=C(C)NC(C)=C(C(=O)OC(C)C)C1c1cccc([N+](=O)[O-])c1 (stereo not shown) [Compound 04] | – | > 10000 | – | – | – | – | – | – | – | – | –
CCOC(=O)C1=C(C)NC(C)=C(C(=O)OC)C1c1cccc([N+](=O)[O-])c1 (stereo not shown) [Compound 08] | – | 2300 | – | – | – | – | – | – | – | – | IC50 (KCa3.1 channel; Table 3, read-out: KCa3.1 IC50): 2300 nM
COC(=O)C1=CNC=C(C(=O)OC)C1c1cc(F)cc(C(F)(F)F)c1 [Compound 109] | 4.5 ± 0.2 | – | > 10 | 4.5 ± 0.2 | 4.5 | > 10 | > 10 | > 10 | 10.6 | 2360 | –
COC(=O)C1=CNC(C)=C(C(=O)OC)C1c1ccc(F)c(C(F)(F)F)c1 (stereo not shown) [Compound 104, Dimethyl 4-(4-fluoro-3-(trifluoromethyl)phenyl)-2-methyl-1,4-dihydropyridine-3,5-dicarboxylate] | – | – | > 10 | 7.6 ± 1.7 | 7.6 | > 10 | 8 | > 10 | 4.9 | 644 | IC50 (KV1.2): > 10 µM; IC50 (KV4.2): > 10 µM; IC50 (KV1.7): > 10 µM; IC50 (KV1.4): > 10 µM; IC50 (KV1.1): > 10 µM; IC50 (KCa1.1): > 10 µM; IC50 (KCa2.2): > 10 µM; IC50 (KV3.1): > 10 µM
COC(=O)C1=C(C)NC(C)=C(C(C)=O)C1c1ccc(F)c(C(F)(F)F)c1 (stereo not shown) [Compound 57] | 16.8 ± 0.9 | – | – | – | 16.8 | – | – | – | 1.5 | 89 | –
COC(=O)C1=CNC=C(C(=O)OC)C1c1ccc(Cl)c(C(F)(F)F)c1 [Compound 113, Dimethyl 4-(4-chloro-3-(trifluoromethyl)phenyl)-1,4-dihydropyridine-3,5-dicarboxylate] | 5.7 ± 0.3 | – | > 10 | 5.7 ± 0.3 | 5.7 | > 10 | > 10 | > 10 | 3.7 | 649 | –
COC(=O)C1=CNC=C(C(=O)OC)C1c1cc(F)c(F)c(C(F)(F)F)c1 [Compound 110, Dimethyl 4-(3,4-difluoro-5-(trifluoromethyl)phenyl)-1,4-dihydropyridine-3,5-dicarboxylate] | 6.9 ± 1.3 | – | > 10 | 6.9 ± 1.3 | 6.9 | > 10 | > 10 | > 10 | 9.1 | 1320 | –
COC(=O)C1=C(C)NC(C)=C(C(=O)OCCN2CCN(C(c3ccccc3)c3ccccc3)CC2)C1c1cccc([N+](=O)[O-])c1 (stereo not shown) [Compound 03] | – | > 10000 | – | – | – | – | – | – | – | – | –
COC(=O)C1=CNC=C(C(=O)OC)C1c1cccc(C(F)(F)F)c1 [Compound 108, Dimethyl 4-(3-(trifluoromethyl)phenyl)-1,4-dihydropyridine-3,5-dicarboxylate] | 18.5 ± 1.1 | – | > 10 | 18.5 ± 1.1 | 18.5 | > 10 | 7 | > 10 | 22 | 1190 | IC50 (KV1.2): > 10 µM; IC50 (KV4.2): > 10 µM; IC50 (KV1.7): > 10 µM; IC50 (KV1.4): > 10 µM; IC50 (KV1.1): > 10 µM; IC50 (KCa1.1): > 10 µM; IC50 (KCa2.2): > 10 µM; IC50 (KV3.1): > 10 µM
COC(=O)C1=C(C)NC(C)=C(C(C)=O)C1c1cccc([N+](=O)[O-])c1 (stereo not shown) [Compound 79] | 142 ± 7.6 | – | – | – | 142 | – | – | – | 2 | 14 | –
COC(=O)C1=C(C)NC(C)=C(C(=O)OC)C1c1ccc(Cl)c(C(F)(F)F)c1 [Compound 102] | 7 ± 0.2 | – | – | – | 7 | – | – | – | 2.4 | 342 | –
